Results from patent US6193985A, “Tocopherol compositions for delivery of biologically active agents” (priority 1994, dated 2001).
Read-outs that look alike come from different tables or passages of the source.

Key:
[1] = cited from earlier work
[2] = Source text: For the following, non-limiting, sparingly soluble drugs in water, the solubility in α-tocopherol and sesame oil are listed in Table 1:
Sesame oil was chosen as the reference, because it is a very commonly used and well tolerated vegetable oil. The solubilities in sesame oil and α-tocopherol were investigated by visual inspection of the saturation point.

[3] = cited from earlier work; remark: listed apart in the source
[4] = solubility in sesame oil (reference)

In the case of `C(=C\c1ccccc1)/CN1CCN(C(c2ccccc2)c2ccccc2)CC1` [Cinnarizine, cinnarizine], the oral bioavailability ([1]; if dissolved in a vehicle before administration) is given as “higher oral bioavailability”, the “g drug in 100 g of sesame oil” value [2] is given as 2-4 g drug in 100 g and the “g drug in 100 g of α-tocopherol” value [2] is given as 11-18 g drug in 100 g. The “solubility in water (in words)” value [3] was “very low water solubility”.
For `CCCC1O[C@@H]2C[C@H]3[C@@H]4CCC5=CC(=O)C=C[C@]5(C)[C@H]4[C@@H](O)C[C@]3(C)[C@]2(C(=O)CO)O1` (stereo partly shown) [Budesonide, budesonide], the “g drug in 100 g of sesame oil” value [2, 4] was < 0.1 g drug in 100 g.
For `Clc1ccc(COC(Cn2ccnc2)c2ccc(Cl)cc2Cl)c(Cl)c1` (stereo not shown) [Miconazole, miconazole], the “g drug in 100 g of α-tocopherol” value ([2]; solubility in α-tocopherol) was 60 g drug in 100 g.
In the case of `Cc1ncc2n1-c1ccc(Cl)cc1C(c1ccccc1F)=NC2` [Midazolam, midazolam], the first-pass effect ([1]; after oral administration) is listed as “very high first-pass effect” and the “g drug in 100 g of α-tocopherol” value ([2]; solubility in α-tocopherol) is listed as > 13 g drug in 100 g.
In the case of `Cc1ncc([N+](=O)[O-])n1CCOC(=O)c1ccccc1` [Metronidazole benzoate], the “g drug in 100 g of sesame oil” value [2, 4] is reported as < 2 g drug in 100 g.
In the case of `CC(=O)[C@H]1CC[C@H]2[C@@H]3CCC4=CC(=O)CC[C@]4(C)[C@H]3CC[C@]12C` [Progesterone], the “g drug in 100 g of α-tocopherol” value ([2]; solubility in α-tocopherol) is reported as > 30 g drug in 100 g.
With `CCN(CC)C(=S)SSC(=S)N(CC)CC` [Disulfiram, disulfiram] the “g drug in 100 g of α-tocopherol” value ([2]; solubility in α-tocopherol) was 5 g drug in 100 g.
For `CCN(CC)CCNC(=O)c1cc(Cl)c(N)cc1OC` [Metoclopramide], the “g drug in 100 g of sesame oil” value [2] was < 2 g drug in 100 g and the “g drug in 100 g of α-tocopherol” value [2] was 2-4 g drug in 100 g.
